# US11191775B2, “PAPD5 and PAPD7 inhibitors for treating a hepatitis B infection” (HOFFMANN-LA ROCHE INC., priority 2016, dated 2021)
# Read-outs that look alike come from different tables or passages of the source.
# What was measured:
# HBV = test: HBsAg and HBeAg secretion in HepG2.2.15 cells; assay type: cell-based; settings: Hepatitis B virus, 72 h, incubated for 3 days, supernatant, CLIA ELISA
# Procedure: To evaluate the impact on HBV antigen expression and secretion, supernatants were collected on Day 11. HBV HBsAg and HBeAg levels were measured using CLIA ELISA Kits (Autobio Diagnostic #CL0310-2, #CL0312-2), according to the manufacturer's protocol. Briefly, 25 μL of supernatant per well were transferred to the respective antibody coated microtiter plate and 25 μL of enzyme conjugate reagent were added. The plate was incubated for 60 min on a shaker at room temperature before the wells were washed five times with washing buffer using an automatic washer. 25 μL of substrate A and B were added to each well. The plates were incubated on a shaker for 10 min at room temperature before luminescence was measured using an Envision luminescence reader (Perkin Elmer).
# The potency of DHQ and THP and their variants against HBV infection were measured in HepG2.2.15 cells using HBsAg and HBeAg as read out.
# HepG2.2.15 cells (Sells et al 1987 Proc Natl Acad Sci USA 84, 1005-1009) were cultured in 96 well plates (15.000 cells/well in 100 uL) in DMEM+GluTaMax-1 (GiBCO Cat. NO. 10569), 1% Pen Strep (Gibco Cat. No. 15140), 10% FBS (Clontech Cat. No. 631106), Geneticin […] (Invitrogen 10131035). The compunds were tested using three-fold serial dilutions in DMSO with a top concentration of 100 μM and 9 serial dilutions. Each compound was tested in quadricate. The cells were incubated for 3 days, supernatents were collected and HBsAg and HBeAg were measured as described in the Materials and Methods section.
# PAPD5 variant 2 = test: Y3H ULTImate YChemH screen; assay type: binding; parameters: key: confidence score of A (scale A-D); settings: prey PAPD5 variant 2; cDNA Human placenta library
# Procedure: (§1) The two compounds were provided by Roche to HYBRIGENICS SERVICES SAS and tested for permeability and toxicity. Compounds were then screened against HYBRIGENICS's cDNA Human placenta library (PLA). The screens were carried out according to the optimized cell-to-cell mating protocol developed for Hybrigenics ULTImate Y2H™ using at different compound concentration (Table 2).
# (§2) Clones obtained from the screen were picked in 96-well format and clones positive for growth under selective conditions (HIS+) were evaluated in a dependency assay using spot assays. Only clones that were able to grow on selective medium in the presence of the tagged compound were being picked up, processed (cell lysis, PCR, gene sequencing) and mapped for protein alignment using Blast analysis.
# (§3) Both proteins PAPD5 (variant 1: NP_001035374; variant 2: NP_001035375) and PAPD7 (XP_005248291) were identified by a numerous number of fragments in the Y3H screen for both compounds (DHQ and THP) as described in the Materials and Method section. The identified proteins were ranked with a confidence score of A (scale A-D) by HYBRIGENICS (Table 6).
# PAPD7 = test: Y3H ULTImate YChemH screen; assay type: binding; parameters: key: confidence score of A (scale A-D); settings: prey PAPD7; cDNA Human placenta library
# Procedure: as §1, §2, §3
# PAPD5 variant 1 = test: Y3H ULTImate YChemH screen; assay type: binding; parameters: key: confidence score of A (scale A-D); settings: prey PAPD5 variant 1; cDNA Human placenta library
# Procedure: as §1, §2, §3
# [1] = tested on: PAPD5 variant 1 and variant 2 prey fragments; test: Y3H ULTImate YChemH 1-by-1 validation, prey fragments; assay type: binding, human; settings: PAPD5 variant 1 and 2 fragments; tested at 5, 10 and 20 μM; FIG. 1
# Procedure: (§4) In this validation step each one identified fragment prey and one chemical probe (HBX129653, HBX129654) is tested in a 1-by-1 experiment. The plasmids from 3 selected preys from the screening library were extracted from the yeast cells, amplified in E. coli and re-transformed into YHGX13 yeast cells. For each interaction, DO1, 1/10, 1/100 and 1/1000 of the diploid yeast culture expressing both hook and prey constructs were spotted on a selective medium without tryptophan, leucine and histidine and supplemented with the chemical probe and FK506. Interactions were tested in duplicate. One plate was used per chemical compound and concentration (DMSO, 5, 10 and 20 μM of HBX129653, 5, 10 and 20 μM of HBX129654, 5 μM of HBX24786 Trimethoprim (TMP) and 5 μM of HBX129634 (TMP-PEG5-OH)). Plates were incubated at 30° C. for 3 days.
# (§5) In a first validation step three fragments identified in the first screen were selected for the 1-by-1 validation assay (as described in the Materials and Method section) and tested at three different concentrations (5, 10 and 20 μM) (Table 7).
# PAPD7 prey fragment = test: as above; assay type: binding, human; settings: tested at 5, 10 and 20 μM, FIG. 1
# Procedure: as §4, §5
# PAPD5 var1 full length = biological target: T1, PAPD5 var1 full length (Homo sapiens, UniProt Q8NDF8); test: Y3H ULTImate YChemH 1-by-1 validation, full length proteins; assay type: binding; settings: tested at 5, 10 and 20 μM, FIG. 2
# T1 construct: PAPD5 var1 full length; host or cells: diploid yeast from YHGX13 (prey) x YPT6AT (DHFR hook)
# T1 sequence (Q8NDF8 1-698 isoform Q8NDF8-5): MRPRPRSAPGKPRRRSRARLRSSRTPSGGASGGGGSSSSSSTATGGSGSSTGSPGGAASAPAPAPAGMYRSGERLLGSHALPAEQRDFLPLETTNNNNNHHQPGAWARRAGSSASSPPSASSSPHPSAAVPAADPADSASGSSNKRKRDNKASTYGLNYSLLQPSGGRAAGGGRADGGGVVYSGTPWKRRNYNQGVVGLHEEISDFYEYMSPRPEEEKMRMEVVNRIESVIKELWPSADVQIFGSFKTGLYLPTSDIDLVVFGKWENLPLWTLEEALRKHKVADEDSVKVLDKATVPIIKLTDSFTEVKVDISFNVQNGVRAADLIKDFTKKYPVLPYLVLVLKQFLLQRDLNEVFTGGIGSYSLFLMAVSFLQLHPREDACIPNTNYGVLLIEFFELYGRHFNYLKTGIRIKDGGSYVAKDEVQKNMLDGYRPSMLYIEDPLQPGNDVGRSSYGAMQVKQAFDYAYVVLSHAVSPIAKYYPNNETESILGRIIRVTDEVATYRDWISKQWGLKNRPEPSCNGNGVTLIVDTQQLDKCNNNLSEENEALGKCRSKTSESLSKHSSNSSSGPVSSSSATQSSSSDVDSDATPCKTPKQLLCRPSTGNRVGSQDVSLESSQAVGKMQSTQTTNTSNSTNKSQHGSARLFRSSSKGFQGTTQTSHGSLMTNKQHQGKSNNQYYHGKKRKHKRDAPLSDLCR
# Text: (§6) The coding sequence of full-length PAPD5var1 (NM_001040284.2) and PAPD7varX1 (XM_005248234.2) were reconstituted from an N-terminal codon-optimized gene fragment (to remove high GC content) and commercially available clones of the C-terminal regions of the proteins and cloned in frame with the Gal4 Activation Domain (AD) into plasmid pP7 (AD-Prey), derived from the original pGADGH (Bartel et al., 1993 in Cellular interactions in development: A practical approach. ed. Hartley, D. A., Oxford University Press, Oxford, pp. 153-179). The constructs were checked by sequencing the entire inserts. For each prey, a mini-mating was carried out between YHGX13 (Y187 ade2-101::IoxP-kanMX-IoxP, matα) transformed with the prey plasmids and YPT6AT yeast cells (mata) transformed with the DHFR hook (Dihydrofolate reductase) to produce a diploid yeast culture. For each interaction, DO1, 1/10, 1/100 and 1/1000 of the diploid yeast culture expressing both hook and prey constructs were spotted on a selective medium without tryptophan, leucine and histidine and supplemented with the chemical probe and FK506. Interactions were tested in duplicate. One plate was used per chemical compound and concentration (DMSO, 5, 10 and 20 μM of HBX129653, 5, 10 and 20 μM of HBX129654, 5 μM of HBX24786 Trimethoprim (TMP) and 5 μM of HBX129634 (TMP-PEG5-OH)). Plates were incubated at 30° C. for 3 days.
# (§7) In a second validation step, full length proteins for PAPD5 and PAPD7 were synthesized and used for 1-by-1 validation (as described in the Materials and Method section) with DHQ and THP (Table 8).
# PAPD7 var1 full length = biological target: T2, PAPD7 var1 full length (Homo sapiens, UniProt Q5XG87); test: as above; assay type: binding; settings: tested at 5, 10 and 20 μM, FIG. 2
# T2 construct: PAPD7 var1 full length; host or cells: diploid yeast from YHGX13 (prey) x YPT6AT (DHFR hook)
# T2 sequence (Q5XG87 whole entry): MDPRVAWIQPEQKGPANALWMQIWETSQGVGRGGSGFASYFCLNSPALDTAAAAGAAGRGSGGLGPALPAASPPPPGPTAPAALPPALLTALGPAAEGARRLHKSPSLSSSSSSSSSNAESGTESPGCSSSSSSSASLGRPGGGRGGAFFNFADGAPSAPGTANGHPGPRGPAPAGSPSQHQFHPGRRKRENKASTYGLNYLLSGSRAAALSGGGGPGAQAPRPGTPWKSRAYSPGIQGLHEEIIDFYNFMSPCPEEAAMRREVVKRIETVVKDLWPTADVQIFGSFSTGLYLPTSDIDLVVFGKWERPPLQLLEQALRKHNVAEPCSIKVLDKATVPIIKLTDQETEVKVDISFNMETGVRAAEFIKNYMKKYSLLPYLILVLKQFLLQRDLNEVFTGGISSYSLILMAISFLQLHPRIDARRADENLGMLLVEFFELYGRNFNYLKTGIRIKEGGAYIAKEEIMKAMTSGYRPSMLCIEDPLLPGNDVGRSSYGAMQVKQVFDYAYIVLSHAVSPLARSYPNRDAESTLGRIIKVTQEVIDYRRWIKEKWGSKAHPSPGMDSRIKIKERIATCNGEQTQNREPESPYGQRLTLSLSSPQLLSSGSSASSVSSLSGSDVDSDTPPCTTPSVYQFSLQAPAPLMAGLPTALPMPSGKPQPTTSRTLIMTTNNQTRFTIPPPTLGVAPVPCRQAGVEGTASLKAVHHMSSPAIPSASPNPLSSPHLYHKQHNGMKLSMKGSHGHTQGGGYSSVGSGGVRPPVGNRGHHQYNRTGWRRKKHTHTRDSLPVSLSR
# Text: as §6, §7
# [2] = biological target: T3, PAPD5 var1 (experimental fragment and full length) (Homo sapiens, UniProt Q8NDF8); test: Y3H ULTImate YChemH competition with free compound; assay type: binding; settings: probe HBX129653 or HBX129654 1 μM, free compound 0-20 μM, FIG. 3-6
# T3 construct: PAPD5 var1 full length; host or cells: diploid yeast from YHGX13 (prey) x YPT6AT (DHFR hook)
# T3 sequence (Q8NDF8 1-698 isoform Q8NDF8-5): as the sequence (Q8NDF8 1-698 isoform Q8NDF8-5) above
# Procedure: (§8) The competition assays were performed on selective medium at 8 concentrations of the free compound (0, 0.25, 0.5, 1, 2, 5, 10 and 20 μM) and a consistent concentration for the tagged Y3H-compound (1 μM).
# [3] = biological target: T4, PAPD7 varX1 (experimental fragment and full length) (Homo sapiens, UniProt Q5XG87); test: Y3H ULTImate YChemH competition with free compound; assay type: binding; settings: probe HBX129653 or HBX129654 1 μM, free compound 0-20 μM, FIG. 3-6
# T4 construct: PAPD7 var1 full length; host or cells: diploid yeast from YHGX13 (prey) x YPT6AT (DHFR hook)
# T4 sequence (Q5XG87 whole entry, the tested form may be a part): as the sequence (Q5XG87 whole entry) above
# Procedure: as §8
# hepatitis C virus (HCV) = test: Activity against hepatitis C virus (data not shown)
Structure (SMILES),IC50 (HBV; read-out: IC50 HBsAg),Confidence score (PAPD5 variant 2),Confidence score (PAPD7),Confidence score (PAPD5 variant 1),1-by-1 validation of binding to prey fragments [1],1-by-1 validation of binding to prey fragments (PAPD7 prey fragment),1-by-1 validation of interaction with full length protein (PAPD5 var1 full length),1-by-1 validation of interaction with full length protein (PAPD7 var1 full length),competition of free compound with chemical probe [2],competition of free compound with chemical probe [3],activity against hepatitis C virus (HCV) (hepatitis C virus (HCV)),IC50 (HBV; read-out: IC50 HBeAg)
COc1cccc(-c2ncc3c(n2)CCN(c2cc(F)c(F)c(OC)c2)C3)n1 [INACT654],> 25000 nM,,,,,,,,,,,
COc1cc(Cc2cnc(N)nc2N)cc(OC)c1OCCOCCOCCOCCOCCOCCOc1cc(N2CCc3nc(-c4ncccn4)ncc3[C@H]2C)cc(F)c1F [HBX129654],299 nM,A,A,,,,,,,,,
COc1cc2c(cc1OCCOCCOCCOCCOCCOCCOc1c(OC)cc(Cc3cnc(N)nc3N)cc1OC)C[C@@H](C(C)(C)C)n1cc(C(=O)O)c(=O)cc1-2 [HBX129653],1180 nM,,A,A,,,,,,,,
COc1cc(N2CCc3nc(-c4ncccn4)ncc3[C@H]2C)cc(F)c1F [MOL654],3 nM,,,,specific binders,specific binders,confirmed at the lowest tested concentration,confirmed at the lowest tested concentration,competition could be observed,competition could be observed,inactive,
COCCCOc1cc2c(cc1Cl)-c1cc(=O)c(C(=O)O)cn1[C@H](C(C)C)C2 [MOL653],3 nM,,,,specific binders,specific binders,confirmed at the lowest tested concentration,confirmed at the lowest tested concentration,competition could be observed,competition could be observed,inactive,7 nM
COCCCOc1cc2c(cc1OC)-c1cc(=O)c(C(=O)O)cn1[C@@H](C(C)C)C2 [INACT653],,,,,,,,,less binding affinity,less binding affinity,,
